Test results published in the supplement of paper PMC10307832.

Experiments:
Test in all cases: relative viability (nuclei count vs DMSO), 5 days (fraction); higher = more cells survive
NCI-H2405 = tested on: NCI-H2405
Summary of the method: (§1)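 The day after seeding in 1536-well plates, lung cancer cell lines were treated by pin tool with a single drug, or with a fixed anchor-drug dose together with five library-drug doses (not always all listed) in √10 steps. After 5 days, a combined fix-and-stain solution (final 0.05% Triton X-100, 1% formaldehyde, 1 ug/ml Hoechst) was added. Nuclei counted on 4× images gave relative viability as treated counts over vehicle counts, reported as the median of duplicate plates.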

NCI-H1650 = tested on: NCI-H1650
Summary of the method: as §1

NCI-H441 = tested on: NCI-H441
Summary of the method: as §1

H3255 = tested on: H3255
Summary of the method: as §1

HCC-827 = tested on: HCC-827
Summary of the method: as §1

LXF-289 = tested on: LXF-289
Summary of the method: as §1

UMC-11 = tested on: UMC-11
Summary of the method: as §1

LK-2 = tested on: LK-2
Summary of the method: as §1

NCI-H1993 = tested on: NCI-H1993
Summary of the method: as §1

LCLC-97TM1 = tested on: LCLC-97TM1
Summary of the method: as §1

EPLC-272H = tested on: EPLC-272H
Summary of the method: as §1

LU99A = settings: first compound 0.001 µM
Summary of the method: as §1

Cc1cn(-c2cc(NC(=O)c3ccc(C)c(Nc4nccc(-c5cccnc5)n4)c3)cc(C(F)(F)F)c2)cn1 [Nilotinib] + C[C@@H](Oc1cc(-c2cnn(C3CCNCC3)c2)cnc1N)c1c(Cl)ccc(F)c1Cl [Crizotinib] (partner 1 µM)
relative viability (NCI-H2405; first compound 0.001 µM): 0.854 | relative viability (NCI-H2405; first compound 0.003162 µM): 0.746 | relative viability (NCI-H2405; first compound 0.01 µM): 0.84 | relative viability (NCI-H2405; first compound 0.03162 µM): 0.747 | relative viability (NCI-H2405; first compound 0.1 µM): 0.857 | relative viability (NCI-H1650; first compound 0.001 µM): 1.07 | relative viability (NCI-H1650; first compound 0.003162 µM): 1.1 | relative viability (NCI-H1650; first compound 0.01 µM): 0.998 | relative viability (NCI-H1650; first compound 0.03162 µM): 0.777 | relative viability (NCI-H1650; first compound 0.1 µM): 0.87 | relative viability (NCI-H441; first compound 0.001 µM): 0.728 | relative viability (NCI-H441; first compound 0.003162 µM): 0.825 | relative viability (NCI-H441; first compound 0.01 µM): 0.601 | relative viability (NCI-H441; first compound 0.1 µM): 0.652 | relative viability (H3255; first compound 0.001 µM): 0.773 | relative viability (H3255; first compound 0.003162 µM): 0.99 | relative viability (H3255; first compound 0.01 µM): 1.07 | relative viability (H3255; first compound 0.03162 µM): 0.814 | relative viability (H3255; first compound 0.1 µM): 1.11 | relative viability (HCC-827; first compound 0.001 µM): 0.936 | relative viability (HCC-827; first compound 0.003162 µM): 0.954 | relative viability (HCC-827; first compound 0.01 µM): 0.893 | relative viability (HCC-827; first compound 0.1 µM): 0.91 | relative viability (LXF-289; first compound 0.001 µM): 0.806 | relative viability (LXF-289; first compound 0.003162 µM): 0.885 | relative viability (LXF-289; first compound 0.01 µM): 0.923 | relative viability (LXF-289; first compound 0.03162 µM): 0.731 | relative viability (LXF-289; first compound 0.1 µM): 0.765 | relative viability (UMC-11; first compound 0.001 µM): 0.561 | relative viability (UMC-11; first compound 0.003162 µM): 0.525 | relative viability (UMC-11; first compound 0.01 µM): 0.585 | relative viability (UMC-11; first compound 0.1 µM): 0.68 | relative viability (LK-2; first compound 0.001 µM): 0.244 | relative viability (LK-2; first compound 0.003162 µM): 0.276 | relative viability (LK-2; first compound 0.01 µM): 0.206 | relative viability (LK-2; first compound 0.03162 µM): 0.251 | relative viability (LK-2; first compound 0.1 µM): 0.241 | relative viability (NCI-H1993; first compound 0.001 µM): 0.998 | relative viability (NCI-H1993; first compound 0.003162 µM): 0.838 | relative viability (NCI-H1993; first compound 0.01 µM): 0.994 | relative viability (NCI-H1993; first compound 0.03162 µM): 0.762 | relative viability (NCI-H1993; first compound 0.1 µM): 0.887 | relative viability (LCLC-97TM1; first compound 0.001 µM): 0.246 | relative viability (LCLC-97TM1; first compound 0.003162 µM): 0.328 | relative viability (LCLC-97TM1; first compound 0.01 µM): 0.712 | relative viability (LCLC-97TM1; first compound 0.03162 µM): 0.311 | relative viability (LCLC-97TM1; first compound 0.1 µM): 0.469 | relative viability (EPLC-272H; first compound 0.001 µM): 0.942 | relative viability (EPLC-272H; first compound 0.003162 µM): 0.935 | relative viability (EPLC-272H; first compound 0.01 µM): 1.01 | relative viability (EPLC-272H; first compound 0.03162 µM): 0.831 | relative viability (EPLC-272H; first compound 0.1 µM): 0.917 | relative viability (LU99A): 0.542
